Molecular target: BAX (Homo sapiens, UniProt Q07812)
Test: SMAC mCherry assay in permeabilized Bax-/- Bak-/- BMK cells with recombinant Bax and cBid
Assay type: cell-based, mouse
Set-up: made in house; host or cells: Escherichia coli BL21-AI
Details: 20 nM Bax, 0.5 nM cBid, 60-80 minutes; read-out: SMAC mCherry I.D IC50
Protocol: Bax−/− Bak−/− double-knockout Baby Mouse Kidney (BMK) cells stably expressing a SMAC-(1-56)-mCherry fusion protein were cultured in DMEM complete (DMEM supplemented with 10% FBS and 1× Penicillin-Streptomycin) in 10 cm diameter tissue-culture treated dishes at 37° C. in a humidified incubator with 5% CO2 in air. Cells were washed with PBS, incubated with 1×Trypsin and resuspended in DMEM complete. Detached cells were seeded at 6000 cells per well in 50 uL DMEM complete into a 384 well Perkin-Elmer Phenoplate, incubated at room-temperature for 30 minutes followed by incubation overnight at 37° C. in a humidified incubator with 5% CO2 in air. Recombinant Bax and recombinant cBid were quickly thawed between fingers and 25 mM compound stocks in DMSO were thawed at room temperature. An 8 point titration curve of each compound was created in a 384-well source plate containing Trehalose-Hepes Buffer (THB, 135 mM trehalose, 50 mM KCl, 10 mM HEPES-KOH pH 7.4, 5 mM succinate, 20 uM EDTA, 20 uM EGTA, 0.1% BSA) supplemented with 1/1000 DRAQ5, 0.0025% digitonin, 20 nM Bax and 0.5 nM cBid. The source plate also contained control wells with THB supplemented with 1/1000 DRAQ5, 0.0025% digitonin plus 20 nM Bax (negative control) or 20 nM Bax and 0.5 nM cBid (positive control). Using the Vantage automated liquid handler, DMEM complete media was removed from the cells growing in the 384 well Phenoplate. The cells were washed 2× with 30 uL THB and then 25 uL from the 384 well source plate containing THB proteins and compounds was transferred to the cells growing in the 384 well plate. The cells were incubated for 60-80 minutes at 37 C in a humidified incubator with 5% CO2 in air and then imaged on the Opera Phenix Microscope. Two image channels were acquired: 1) DRAQ5 channel, to visualize nuclei and aid in cell segmentation and 2) SMAC-mCherry channel to visualize mitochondria that retain SMAC-mCherry. Data was processed using PerkinElmer Harmony software where the cells were segmented using the DRAQ5 channel and the mean intensity of SMAC-mCherry for each cell was calculated. The single-cell lobject level data was exported and then analyzed using R code. A per cell SMAC-mCherry intensity cutoff was calculated as 1.33 times the mean per cell SMAC-mCherry intensity of the THB+Bax control. Cells with a SMAC-mCherry intensity below or equal to the cutoff were scored as “released”. The percentage SMAC-mCherry release was calculated as the number of cells scored as “released” divided by the total amount of cells multiplied by 100. Dose-response curves were fit to a 4-parameter log-logistic model to determine the IC50 value for each compound.

Sequence of BAX (Q07812 whole entry): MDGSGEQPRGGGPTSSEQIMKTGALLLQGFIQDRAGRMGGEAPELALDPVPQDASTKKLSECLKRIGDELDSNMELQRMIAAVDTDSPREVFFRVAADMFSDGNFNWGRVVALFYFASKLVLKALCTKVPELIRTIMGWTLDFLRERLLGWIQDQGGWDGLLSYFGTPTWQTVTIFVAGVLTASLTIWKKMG

`COc1cc2ccnc(Nc3ccc(F)c(Cl)c3)c2cc1NC(=O)CCCN1CCCCC1` [Compound 1-1, N-(1-((3-chloro-4-fluorophenyl)amino)-6-methoxyisoquinolin-7-yl)-4-(piperidin-1-yl)butanamide] and `COc1cc2ccnc(Nc3ccc(F)c(Cl)c3)c2cc1NC(=O)CCCN1CCCC1` [Compound 1-4] fall in the same range of IC50: 0.1 to 10 µM for the first, 0.1 to 10 µM for the second.

`COc1cc2ccnc(Nc3ccc(F)c(Cl)c3)c2cc1NC(=O)CCCN1C[C@@H](C)O[C@@H](C)C1` [Compound 1-5, N-(1-((3-chloro-4-fluorophenyl)amino)-6-methoxyisoquinolin-7-yl)-4-((2S,6R)-2,6-dimethylmorpholino)butanamide] and `COc1cc2ccnc(Nc3ccc(F)c(Cl)c3)c2cc1NC(=O)CCCN1CCN(C)CC1` [Compound 1-7, N-(1-((3-chloro-4-fluorophenyl)amino)-6-methoxyisoquinolin-7-yl)-4-(4-methylpiperazin-1-yl)butanamide] fall in the same range of IC50: 0.1 to 10 µM for the first, 0.1 to 10 µM for the second.

`Cc1ccc(Nc2nccc3ccc(NC(=O)CCCN4CCCCC4)cc23)cc1Cl` [Compound 1-32, N-(1-((3-chloro-4-methylphenyl)amino)isoquinolin-7-yl)-4-(piperidin-1-yl)butanamide] and `O=C(CCCN1CCCCC1)Nc1ccc2ccnc(Nc3ccc(F)c(Cl)c3)c2c1` [Compound 1-18, N-(1-((3-chloro-4-fluorophenyl)amino)isoquinolin-7-yl)-4-(piperidin-1-yl)butanamide] fall in the same range of IC50: 0.1 to 10 µM for the first, 0.1 to 10 µM for the second.

`COc1cc2ccnc(Nc3ccc(C)cc3)c2cc1NC(=O)CCCN1CCCCC1` [Compound 1-14, N-(6-methoxy-1-(p-tolylamino)isoquinolin-7-yl)-4-(piperidin-1-yl)butanamide] and `COc1cc2ccnc(Nc3cccc(C)c3)c2cc1NC(=O)CCCN1CCCCC1` [Compound 1-11, N-(6-methoxy-1-(m-tolylamino)isoquinolin-7-yl)-4-(piperidin-1-yl)butanamide] fall in the same range of IC50: 51 to 100 µM for the first, 51 to 100 µM for the second.

`O=C(CCCN1CCCCC1)Nc1ccc2ccnc(Nc3cccc(Cl)c3F)c2c1` [Compound 1-39, N-(1-((3-chloro-2-fluorophenyl)amino)isoquinolin-7-yl)-4-(piperidin-1-yl)butanamide] and `O=C(CCCN1CCCCC1)Nc1ccc2ccnc(Nc3ccc(Cl)c(Cl)c3F)c2c1` [Compound 1-34, N-(1-((3,4-dichloro-2-fluorophenyl)amino)isoquinolin-7-yl)-4-(piperidin-1-yl)butanamide] fall in the same range of IC50: 0.1 to 10 µM for the first, 0.1 to 10 µM for the second.

First: COc1cc2ccnc(Nc3cccc(F)c3)c2cc1NC(=O)CCCN1CCCCC1 [Compound 1-9, N-(1-((3-fluorophenyl)amino)-6-methoxyisoquinolin-7-yl)-4-(piperidin-1-yl)butanamide]
Second: COc1cccc(Nc2nccc3cc(OC)c(NC(=O)CCCN4CCCCC4)cc23)c1 [Compound 1-10, N-(6-methoxy-1-((3-methoxyphenyl)amino)isoquinolin-7-yl)-4-(piperidin-1-yl)butanamide]
The IC50 of the first is lower: 11 to 50 µM for the first, > 100 µM for the second. The first is the more potent here.

First: COc1ccc(Nc2nccc3cc(OC)c(NC(=O)CCCN4CCCCC4)cc23)cc1Cl [Compound 1-24, N-(1-((3-chloro-4-methoxyphenyl)amino)-6-methoxyisoquinolin-7-yl)-4-(piperidin-1-yl)butanamide]
Second: COc1cc2ccnc(Nc3ccc(F)c(Cl)c3)c2cc1NC(=O)CCCCN1CCCCC1 [Compound 1-2, N-(1-((3-chloro-4-fluorophenyl)amino)-6-methoxyisoquinolin-7-yl)-5-(piperidin-1-yl)pentanamide]
The IC50 of the first is higher: 11 to 50 µM for the first, 0.1 to 10 µM for the second.

`O=C(CCCN1CCCCC1)Nc1ccc2ccnc(Nc3cc(Cl)c(F)c(Cl)c3)c2c1` [Compound 1-36, N-(1-((3,5-dichloro-4-fluorophenyl)amino)isoquinolin-7-yl)-4-(piperidin-1-yl)butanamide] and `O=C(CCCN1CCCCC1)Nc1ccc2ccnc(Nc3cc(F)c(Cl)c(Cl)c3)c2c1` [Compound 1-37, N-(1-((3,4-dichloro-5-fluorophenyl)amino)isoquinolin-7-yl)-4-(piperidin-1-yl)butanamide] fall in the same range of IC50: 0.1 to 10 µM for the first, 0.1 to 10 µM for the second.

First: CCc1cc(Nc2nccc3cc(OC)c(NC(=O)CCCN4CCCCC4)cc23)ccc1F [Compound 1-28, N-(1-((3-ethyl-4-fluorophenyl)amino)-6-methoxyisoquinolin-7-yl)-4-(piperidin-1-yl)butanamide]
Second: COc1cc2ccnc(Nc3ccc(F)c(C(F)(F)F)c3)c2cc1NC(=O)CCCN1CCCCC1 [Compound 1-16, N-(1-((4-fluoro-3-(trifluoromethyl)phenyl)amino)-6-methoxyisoquinolin-7-yl)-4-(piperidin-1-yl)butanamide]
The IC50 of the first is higher: 11 to 50 µM for the first, 0.1 to 10 µM for the second. The second is the more potent here.

`O=C(CCCN1CCCCC1)Nc1ccc2ccnc(Nc3ccc(F)c(Cl)c3F)c2c1` [Compound 1-40, N-(1-((3-chloro-2,4-difluorophenyl)amino)isoquinolin-7-yl)-4-(piperidin-1-yl)butanamide] and `O=C(CCCN1CCCCC1)Nc1ccc2ccnc(Nc3ccc(F)c(C(F)(F)F)c3)c2c1` [Compound 1-33, N-(1-((4-fluoro-3-(trifluoromethyl)phenyl)amino)isoquinolin-7-yl)-4-(piperidin-1-yl)butanamide] fall in the same range of IC50: 0.1 to 10 µM for the first, 0.1 to 10 µM for the second.

First: COc1cc2ccnc(Nc3cc(Cl)c(F)c(Cl)c3)c2cc1NC(=O)CCCN1CCCCC1 [Compound 1-23, N-(1-((3,5-dichloro-4-fluorophenyl)amino)-6-methoxyisoquinolin-7-yl)-4-(piperidin-1-yl)butanamide]
Second: COc1cc2ccnc(Nc3ccc(F)cc3Cl)c2cc1NC(=O)CCCN1CCCCC1 [Compound I-19, N-(1-((2-chloro-4-fluorophenyl)amino)-6-methoxyisoquinolin-7-yl)-4-(piperidin-1-yl)butanamide]
The IC50 of the first is lower: 0.1 to 10 µM for the first, 11 to 50 µM for the second.

`COc1cc2ccnc(Nc3ccc(F)c(Cl)c3)c2cc1NC(=O)CCN1CCCCC1` [Compound 1-3, N-(1-((3-chloro-4-fluorophenyl)amino)-6-methoxyisoquinolin-7-yl)-3-(piperidin-1-yl)propanamide] and `Cc1cc2ccnc(Nc3ccc(F)c(Cl)c3)c2cc1NC(=O)CCCN1CCCCC1` [Compound 1-17, N-(1-((3-chloro-4-fluorophenyl)amino)-6-methylisoquinolin-7-yl)-4-(piperidin-1-yl)butanamide] fall in the same range of IC50: 11 to 50 µM for the first, 11 to 50 µM for the second.

Compared with `COc1cc2ccnc(Nc3ccc(F)c(Cl)c3)c2cc1N(C)C(=O)CCCN1CCCCC1` [Compound 1-31, N-(1-((3-chloro-4-fluorophenyl)amino)-6-methoxyisoquinolin-7-yl)-N-methyl-4-(piperidin-1-yl)butanamide], `O=C(CCCN1CCCCC1)Nc1cc2c(Nc3ccc(F)c(Cl)c3)nccc2cc1Cl` [Compound 1-26, N-(6-chloro-1-((3-chloro-4-fluorophenyl)amino)isoquinolin-7-yl)-4-(piperidin-1-yl)butanamide] is lower in IC50: 11 to 50 µM for the first, 0.1 to 10 µM for the second. The second is the more potent here.

Molecular target: T1, FL EGFR (Homo sapiens, UniProt P00533)
T1 construct: kinase domain of EGFR (amino acids 695-1210); purchased Promega V3831
Test: EGFR kinase assay (ADP-Glo)
Assay type: biochemical
Details: not given
Protocol: A peptide containing the kinase domain of EGFR (amino acids 695-1210) was used to assess the inhibitory potency of the inhibitors. The ADP-Glo kinase assay (Promega V9101), and the EGFR kinase enzyme (Promega V3831) were used according to the supplier's instructions. Briefly, […] reactions were assembled in wells of a 384 well plate as follows: 5 μL of the kinase reaction, 5 μL of the ADP depletion reagent, and 10 μL of the luciferase reagent. For the kinase reaction: 1 μL of the inhibitor (dissolved in DMSO) was mixed with 2 μL EGFR peptide ([…]), 1 μL of a poly Glu4Tyr1 peptide (0.2 μg/μL), 1 μL reaction buffer, and 1 μL of ATP (final concentration of 5 μM). The kinase reaction was incubated at room temperature for 1 hour. 5 μL of the ATP depletion/kinase terminating reagent was mixed into each well and incubated at room temperature for 40 minutes. 10 μL of the kinase detection reagent containing luciferase was mixed into each well and incubated at room temperature for 30 minutes for bioluminescent detection of ADP produced from the kinase reaction in step 1. Bioluminescent signal was detected in a Tecan Safire^2 with a black plug covering the excitation filter, and an empty emission filter. The integration time was increased to […] to detect enough luminescence per reading.

T1 sequence (P00533 695-1210): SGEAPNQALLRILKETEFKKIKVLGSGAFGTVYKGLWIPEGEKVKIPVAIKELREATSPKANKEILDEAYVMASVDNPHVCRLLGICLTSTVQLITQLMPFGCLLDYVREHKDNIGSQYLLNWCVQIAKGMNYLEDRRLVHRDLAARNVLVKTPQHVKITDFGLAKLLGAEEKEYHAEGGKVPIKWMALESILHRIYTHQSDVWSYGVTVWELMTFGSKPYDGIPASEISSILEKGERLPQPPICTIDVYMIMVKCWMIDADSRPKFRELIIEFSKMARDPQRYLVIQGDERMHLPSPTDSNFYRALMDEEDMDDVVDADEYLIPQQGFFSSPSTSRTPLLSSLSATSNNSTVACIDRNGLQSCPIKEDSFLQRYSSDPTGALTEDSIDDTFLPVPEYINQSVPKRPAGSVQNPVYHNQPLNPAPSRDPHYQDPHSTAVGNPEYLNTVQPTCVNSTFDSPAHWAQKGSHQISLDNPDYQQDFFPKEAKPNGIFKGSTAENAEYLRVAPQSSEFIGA

`COc1cc2ccnc(Nc3ccc(F)c(Cl)c3)c2cc1NC(=O)CCCN1CCCCC1` [Compound 1-1, N-(1-((3-chloro-4-fluorophenyl)amino)-6-methoxyisoquinolin-7-yl)-4-(piperidin-1-yl)butanamide] was tested, and the IC50 was > 10 µM.
